According to patent US6727237B2, “Inhibitors of bacterial NAD synthetase” (priority 1998, dated 2004):
“And” between values parts separate entries of the source, which are not always exact repeats. Identical values can stand only once.

Legend:
[1] = biological target: T1, bacterial NAD synthetase enzyme (Bacillus subtilis, UniProt P08164); assay: biochemical; assay type: biochemical
T1 sequence (P08164 2-272 limits assumed): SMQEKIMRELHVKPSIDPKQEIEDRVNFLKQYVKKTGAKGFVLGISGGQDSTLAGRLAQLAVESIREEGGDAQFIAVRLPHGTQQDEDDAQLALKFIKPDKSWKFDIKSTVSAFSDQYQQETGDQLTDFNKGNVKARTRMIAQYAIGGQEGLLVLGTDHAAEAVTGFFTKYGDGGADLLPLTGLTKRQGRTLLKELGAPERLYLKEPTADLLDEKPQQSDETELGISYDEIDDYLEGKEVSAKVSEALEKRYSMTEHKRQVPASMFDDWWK

[2] = tested on: Staphylococcus epidermitis; assay: Bacterial growth inhibition screen in LB media (absorbance 595 nm), percent inhibition; settings: S. epidermitis
[3] = compound at 0.2 mM (Table 312A)

Compound | % Inhibition [1, 3] [%] | % Inhibition ([2]; concentration screened 10 uM) | % Inhibition ([1]; compound at 0.1 mM (Table 314)) [%] | % Inhibition ([2]; concentration screened 100 uM) [%]
COC(=O)c1ccc[n+](CCCCn2ccc3cc([N+](=O)[O-])ccc32)c1 [Compound 9] | 28.02 | 31.80% |  | 
COC(=O)c1ccc2c(ccn2CCCCCCCCC[n+]2ccccc2)c1 [Compound 166] | 87.68 | 21.66% |  | 
COC(=O)C=Cc1cn(CCCCCCC[n+]2cccc(C(=O)OC)c2)c2ccccc12 [Compound 269] |  | 46.12% | 51.12 | 
c1cc[n+](CCCCCCc2cc3ccccc3[nH]2)cc1 [Compound 285] | 32.45 |  |  | 98.57
Fc1cc(F)c2[nH]c(CCC[n+]3ccccc3)cc2c1 [Compound 300] | 11.79 | 6.20% |  | 
Fc1cc(F)c2[nH]c(CCCCCC[n+]3ccccc3)cc2c1 [Compound 303] | 50.56 |  |  | 100.00
O=[N+]([O-])c1cc([N+](=O)[O-])c2[nH]c(CCC[n+]3ccccc3)cc2c1 [Compound 306] | 33.93 | 4.32% |  | 
O=[N+]([O-])c1cc([N+](=O)[O-])c2[nH]c(CCCCCC[n+]3ccccc3)cc2c1 [Compound 309] |  |  | 41.47 | 99.07
CCCCc1ccc2[nH]c(CCC[n+]3ccccc3)cc2c1 [Compound 312] |  | 4.60% | 10.25 | 
CC(C)c1ccc2[nH]c(CCC[n+]3ccccc3)cc2c1 [Compound 318] | 14.94 | 2.99% |  | 
CC(C)c1ccc2[nH]c(CCCCCC[n+]3ccccc3)cc2c1 [Compound 321] |  |  | 37.25 | 100.00
c1ccc(-c2ccc3[nH]c(CCCCC[n+]4ccccc4)cc3c2)cc1 [Compound 326] |  | 6.27% | 16.11 | 
c1ccc(-c2ccc3[nH]c(CCCCCC[n+]4ccccc4)cc3c2)cc1 [Compound 327] |  |  | 55.31 | 100.00
O=[N+]([O-])c1ccc2[nH]c(CCCCCC[n+]3ccccc3)cc2c1 [Compound 333] |  |  | 26.29 | 100.00
c1ccc(C(c2ccccc2)(c2ccccc2)c2ccc3[nH]c(CCCCC[n+]4ccccc4)cc3c2)cc1 [Compound 338] |  | 1.67% | 27.28 | 
c1ccc(C(c2ccccc2)(c2ccccc2)c2ccc3[nH]c(CCCCCC[n+]4ccccc4)cc3c2)cc1 [Compound 339] | 42.87 |  |  | 100.00
Fc1ccc2[nH]c(CCC[n+]3ccccc3)cc2c1 [Compound 342] | 11.92 | 14.97% |  | 
Fc1ccc2[nH]c(CCCCC[n+]3ccccc3)cc2c1 [Compound 344] | 4.58 | 8.08% |  | 
c1ccc(Oc2ccc3[nH]c(CCCCCC[n+]4ccccc4)cc3c2)cc1 [Compound 351] | 65.08 |  |  | 99.57
O=C(c1ccccc1)c1ccc2[nH]c(CCCC[n+]3ccccc3)cc2c1 [Compound 355] | 2.08 | 5.78% | 3.31 | 
O=C(c1ccccc1)c1ccc2[nH]c(CCCCC[n+]3ccccc3)cc2c1 [Compound 356] | 1.95 |  |  | 19.29

Compound | % Inhibition [1, 3] [%] | % Inhibition ([2]; concentration screened 10 uM) | % Inhibition ([1]; compound at 0.1 mM (Table 314)) [%] | % Inhibition ([2]; concentration screened 100 uM) [%]
O=C(c1ccccc1)c1ccc2[nH]c(CCCCCCCC[n+]3ccccc3)cc2c1 [Compound 359] | 35.55 |  |  | 1.01
FC(F)(F)c1ccc2[nH]c(CCCC[n+]3ccccc3)cc2c1 [Compound 361] |  | 5.57% | 16.08 | 
FC(F)(F)c1ccc2[nH]c(CCCCCCC[n+]3ccccc3)cc2c1 [Compound 364] | 29.20 | 2.16% |  | 
CC(=O)c1ccc2[nH]c(CCCC[n+]3ccccc3)cc2c1 [Compound 367] | 9.72 | 5.64% and 5.22% |  | 
CC(=O)c1ccc2[nH]c(CCCCC[n+]3ccccc3)cc2c1 [Compound 368] |  |  | 21.10 | 91.36
CC(=O)c1ccc2[nH]c(CCCCCC[n+]3ccccc3)cc2c1 [Compound 369] | 35.33 |  |  | 100.00
COc1ccc2[nH]c(CCCC[n+]3ccccc3)cc2c1 [Compound 373] | 14.13 | 1.53% | 7.72 | 
COC(=O)c1ccc2[nH]c(CCCCC[n+]3ccccc3)cc2c1 [Compound 380] | 10.09 |  |  | 97.64
O=C(O)c1ccc2[nH]c(CCCCC[n+]3ccccc3)cc2c1 [Compound 386] | 28.75 |  |  | 96.36
O=C(O)c1ccc2[nH]c(CCCCCC[n+]3ccccc3)cc2c1 [Compound 387] |  |  | 29.97 | 97.64
c1ccc2[nH]c(CCCCC[n+]3cccc4ccccc43)cc2c1 [Compound 392] | 10.89 | 9.61% |  | 
c1ccc2[nH]c(CCCCCCC[n+]3cccc4ccccc43)cc2c1 [Compound 394] | 4.62 | 7.03% |  | 
FC(F)(F)c1ccc2cc(CCC[n+]3cccc4ccccc43)[nH]c2c1 [Compound 396] |  | 1.53% | 3.64 | 
FC(F)(F)c1ccc2cc(CCCC[n+]3cccc4ccccc43)[nH]c2c1 [Compound 397] |  | 5.85% | 4.51 | 
Cc1ccc2[nH]c(CCCC[n+]3cccc4ccccc43)cc2c1 [Compound 403] | 5.07 | 4.87% |  | 
Cc1ccc2[nH]c(CCCCCC[n+]3cccc4ccccc43)cc2c1 [Compound 405] | 6.07 | 44.01% |  | 
Cc1ccc2[nH]c(CCCCCCC[n+]3cccc4ccccc43)cc2c1 [Compound 406] | 10.96 | 6.41% |  | 
Fc1cc(F)c2[nH]c(CCC[n+]3cccc4ccccc43)cc2c1 [Compound 408] | 7.04 | 1.88% |  | 
Fc1cc(F)c2[nH]c(CCCCCC[n+]3cccc4ccccc43)cc2c1 [Compound 411] | 8.84 | 15.74% |  | 
O=[N+]([O-])c1cc([N+](=O)[O-])c2[nH]c(CCCC[n+]3cccc4ccccc43)cc2c1 [Compound 415] | 7.72 | 1.95% |  | 
O=[N+]([O-])c1cc([N+](=O)[O-])c2[nH]c(CCCCCC[n+]3cccc4ccccc43)cc2c1 [Compound 417] | 14.59 | 7.80% |  | 

Compound | % Inhibition [1, 3] [%] | % Inhibition ([2]; concentration screened 10 uM) | % Inhibition ([1]; compound at 0.1 mM (Table 314)) [%] | % Inhibition ([2]; concentration screened 100 uM) [%]
CCCCc1ccc2[nH]c(CCCCC[n+]3cccc4ccccc43)cc2c1 [Compound 422] | 16.23 | 9.82% |  | 
CCCCc1ccc2[nH]c(CCCCCC[n+]3cccc4ccccc43)cc2c1 [Compound 423] | 12.09 | 16.85% |  | 
CC(C)c1ccc2[nH]c(CCC[n+]3cccc4ccccc43)cc2c1 [Compound 426] |  | 16.57% | 5.49 | 
CC(C)c1ccc2[nH]c(CCCCC[n+]3cccc4ccccc43)cc2c1 [Compound 428] | 26.53 | 5.85% |  | 
CC(C)c1ccc2[nH]c(CCCCCC[n+]3cccc4ccccc43)cc2c1 [Compound 429] | 13.01 | 3.06% |  | 
CC(C)c1ccc2[nH]c(CCCCCCCC[n+]3cccc4ccccc43)cc2c1 [Compound 431] | 10.77 | 22.28% |  | 
c1ccc(-c2ccc3[nH]c(CCC[n+]4cccc5ccccc54)cc3c2)cc1 [Compound 432] | 13.21 | 8.91% |  | 
c1ccc(-c2ccc3[nH]c(CCCCC[n+]4cccc5ccccc54)cc3c2)cc1 [Compound 434] | 5.36 | 5.64% |  | 
c1ccc(-c2ccc3[nH]c(CCCCCCCC[n+]4cccc5ccccc54)cc3c2)cc1 [Compound 437] | 6.91 | 11.84% |  | 
O=[N+]([O-])c1ccc2[nH]c(CCC[n+]3cccc4ccccc43)cc2c1 [Compound 438] | 9.45 | 5.29% |  | 
O=[N+]([O-])c1ccc2[nH]c(CCCC[n+]3cccc4ccccc43)cc2c1 [Compound 439] |  | 30.57% | 2.57 | 
O=[N+]([O-])c1ccc2[nH]c(CCCCC[n+]3cccc4ccccc43)cc2c1 [Compound 440] | 12.69 | 8.77% |  | 
O=[N+]([O-])c1ccc2[nH]c(CCCCCCCC[n+]3cccc4ccccc43)cc2c1 [Compound 443] | 5.51 | 7.66% |  | 
C[n+]1cc(C(=O)OCCCCCCCCn2ccc3cc(OCc4ccccc4)ccc32)cc2ccccc21 [Compound 829] |  | 98.64% |  | 
O=C(OCCCCn1ccc2cc([N+](=O)[O-])ccc21)c1cnc2ccccc2c1 [Compound 830] |  | 42.99% |  | 
CN(C)c1cccc(C(=O)OCCCCCCn2ccc3cc([N+](=O)[O-])ccc32)c1 [Compound 838] |  | 17.65% |  | 
CN(C)c1ccc(C(=O)OCCCCCn2ccc3cc([N+](=O)[O-])ccc32)cc1 [Compound 843] |  | 2.20% |  | 
CN(C)c1ccc(C(=O)OCCCCCCCCCn2ccc3cc([N+](=O)[O-])ccc32)cc1 [Compound 847] |  | 19.84% |  | 
O=C(OCCCn1ccc2cc([N+](=O)[O-])ccc21)c1cccnc1 [Compound 855] |  | 49.58% |  | 
C[n+]1cccc(C(=O)OCCCCn2ccc3cc([N+](=O)[O-])ccc32)c1 [Compound 863] |  | 4.72% |  | 
